Results as given in ChEMBL document CHEMBL1201862, “PubChem BioAssay data set” (2004).
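In this assay, cells in 96-well plates receive the compound at five concentrations for 48 hours. Endpoints are linearly interpolated between the surrounding concentrations. The concentration for 50% growth inhibition is given as GI50.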 Active and inactive are the calls of the source. No stated cut-off is given here; in the data, active = GI50 up to about 1.1 µM and inactive = higher.

Columns and labels:
Assay in all cases: DTP human tumour cell line panel, 48 h
MDA-MB-231 = test system: MDA-MB-231
SK-MEL-28 = test system: SK-MEL-28
K562 = test system: K562
NCI-H522 = test system: NCI-H522
NCI-H23 = test system: NCI-H23
A549 = test system: A549
OVCAR-4 = test system: OVCAR-4
ACHN = test system: ACHN
M14 = test system: M14
T47D = test system: T47D
COLO 205 = test system: COLO 205
786-0 = test system: 786-0
SK-OV-3 = test system: SK-OV-3
HL-60 = test system: HL-60
SK-MEL-2 = test system: SK-MEL-2
SW-620 = test system: SW-620
MDA-MB-435 = test system: MDA-MB-435
UO-31 = test system: UO-31

SMILES | GI50 (MDA-MB-231) | GI50 (SK-MEL-28) | GI50 (K562) | GI50 (NCI-H522) | GI50 (NCI-H23) | GI50 (A549) | GI50 (OVCAR-4) | GI50 (ACHN) | GI50 (M14) | GI50 (T47D) | GI50 (COLO 205) | GI50 (786-0) | GI50 (SK-OV-3) | GI50 (HL-60) | GI50 (SK-MEL-2) | GI50 (SW-620) | GI50 (MDA-MB-435) | GI50 (UO-31)
c1ccc(CCCNc2nnnc3ccccc23)cc1 | > 100 µM (inactive) | > 100 µM (inactive) | 47.5 µM (inactive) | 24.1 µM (inactive) | 70.3 µM (inactive) | 63 µM (inactive) | 38.9 µM (inactive) | 85.1 µM (inactive) | > 100 µM (inactive) | 23.2 µM (inactive) | 62.5 µM (inactive) | > 100 µM (inactive) | > 100 µM (inactive) | > 100 µM (inactive) | > 100 µM (inactive) | > 100 µM (inactive) | 55.1 µM (inactive) | 
O=[N+]([O-])c1cccnc1-n1cnc2ccccc21 | > 100 µM (inactive) | > 100 µM (inactive) | > 100 µM (inactive) |  |  | > 100 µM (inactive) | > 100 µM (inactive) |  | > 100 µM (inactive) | > 100 µM (inactive) | > 100 µM (inactive) | > 100 µM (inactive) | > 100 µM (inactive) | 48 µM (inactive) | > 100 µM (inactive) | > 100 µM (inactive) | > 100 µM (inactive) | 
CC(NC(=O)C(NC(=O)CNC(=O)OC(C)(C)C)C(C)C)C(=O)Oc1c(Cl)c(Cl)c(Cl)c(Cl)c1Cl (configuration not stated) | 22.6 µM (inactive) | 26.6 µM (inactive) | 50.7 µM (inactive) | 23.9 µM (inactive) | 14 µM (inactive) | 22.4 µM (inactive) | 18.8 µM (inactive) | 21.8 µM (inactive) | 18.8 µM (inactive) | 23.1 µM (inactive) | 17 µM (inactive) |  | 21.5 µM (inactive) | 55.2 µM (inactive) | 14.3 µM (inactive) | 24.7 µM (inactive) | 23.4 µM (inactive) | 16 µM (inactive)
CCN(CC)c1ccc2cc(-c3csc(-c4ccc(N(C)C)cc4)n3)c(=O)oc2c1 | > 100 µM (inactive) | > 100 µM (inactive) | > 100 µM (inactive) | > 100 µM (inactive) |  | > 100 µM (inactive) | > 100 µM (inactive) | > 100 µM (inactive) | > 100 µM (inactive) | > 100 µM (inactive) | > 100 µM (inactive) | > 100 µM (inactive) | > 100 µM (inactive) | > 100 µM (inactive) | > 100 µM (inactive) | > 100 µM (inactive) | > 100 µM (inactive) | > 100 µM (inactive)
CC1(C)CC2C(C1=O)C1(C)CCCC2(C)C1=O (configuration not stated) | > 100 µM (inactive) | > 100 µM (inactive) | > 100 µM (inactive) |  | > 100 µM (inactive) | > 100 µM (inactive) | > 100 µM (inactive) | > 100 µM (inactive) | > 100 µM (inactive) | > 100 µM (inactive) | > 100 µM (inactive) | > 100 µM (inactive) | > 100 µM (inactive) | > 100 µM (inactive) | > 100 µM (inactive) | > 100 µM (inactive) | > 100 µM (inactive) | > 100 µM (inactive)
CN(Cc1c[n+]([O-])c2nc(N)nc(N)c2n1)c1ccc(C(=O)NC23CC4CC(CC(C4)C2)C3)cc1 | 98.9 µM (inactive) | 23.1 µM (inactive) | 48.9 µM (inactive) |  | > 100 µM (inactive) |  |  | > 100 µM (inactive) | > 100 µM (inactive) | 75.2 µM (inactive) | > 100 µM (inactive) | > 100 µM (inactive) | > 100 µM (inactive) | 31 µM (inactive) | > 100 µM (inactive) | > 100 µM (inactive) | 77.4 µM (inactive) | > 100 µM (inactive)
COc1ccc2c3c([nH]c2c1)CCN(Cc1ccccc1)C3 | 28.9 µM (inactive) | 18.8 µM (inactive) | 21.4 µM (inactive) |  | 42.3 µM (inactive) | 62.1 µM (inactive) | 62.8 µM (inactive) | 31.3 µM (inactive) | 16.2 µM (inactive) | 19.4 µM (inactive) | 18.7 µM (inactive) | > 10 µM (inactive) | > 100 µM (inactive) | 17.5 µM (inactive) |  | 23.2 µM (inactive) | 23.6 µM (inactive) | 12.4 µM (inactive)
CCCCCCCCCc1cc(-c2ccc(C=O)s2)sc1-c1ccc(C=O)s1 | 26.2 µM (inactive) | 33.7 µM (inactive) | 3.56 µM (inactive) | 15.9 µM (inactive) | 20.1 µM (inactive) | 53.1 µM (inactive) | 24.4 µM (inactive) | 30.7 µM (inactive) | 8.47 µM (inactive) | 17.1 µM (inactive) | 20 µM (inactive) | 28.7 µM (inactive) | 29 µM (inactive) | 16.8 µM (inactive) | 25.5 µM (inactive) | 30.2 µM (inactive) | 22.6 µM (inactive) | 17.7 µM (inactive)
CCN(CC)CC(=O)Nc1c(C(N)=O)nnn1Cc1cc(Cl)c(C(=O)c2ccc(Cl)cc2)c(Cl)c1 | 16.9 µM (inactive) | 18.5 µM (inactive) | 17.3 µM (inactive) | 18.1 µM (inactive) | 14.6 µM (inactive) | 22.3 µM (inactive) | 31 µM (inactive) | 29.7 µM (inactive) | 16.9 µM (inactive) | 15.9 µM (inactive) | 16.9 µM (inactive) | 16.1 µM (inactive) | 21.6 µM (inactive) | 15.5 µM (inactive) | 14.9 µM (inactive) | 19.2 µM (inactive) | 18.5 µM (inactive) | 13.7 µM (inactive)
C1CCN2CC3CCCN4CCCC(C2C1)C34 (configuration not stated) | > 100 µM (inactive) | > 100 µM (inactive) | > 100 µM (inactive) | > 100 µM (inactive) | > 100 µM (inactive) | > 100 µM (inactive) |  | > 100 µM (inactive) | > 100 µM (inactive) | > 100 µM (inactive) | > 100 µM (inactive) | > 100 µM (inactive) | > 100 µM (inactive) | > 100 µM (inactive) | > 100 µM (inactive) | > 100 µM (inactive) | > 100 µM (inactive) | 
CN(C)C(=S)/N=C1\SC(=N\c2ccccc2)/C(=N/c2ccccc2)N1c1ccc([N+](=O)[O-])cc1 | > 100 µM (inactive) | > 100 µM (inactive) | > 100 µM (inactive) | > 100 µM (inactive) | > 100 µM (inactive) |  |  |  | > 100 µM (inactive) | > 100 µM (inactive) | > 100 µM (inactive) |  | > 100 µM (inactive) | > 100 µM (inactive) | > 100 µM (inactive) |  | > 100 µM (inactive) | > 100 µM (inactive)
O=C(Cc1ccc(Cl)c(Cl)c1)NCC1(N2CCCCC2)CCCCC1 | 58.5 µM (inactive) |  | 50.1 µM (inactive) | 38 µM (inactive) | 57.7 µM (inactive) | 41.4 µM (inactive) | 64 µM (inactive) | > 100 µM (inactive) | 18.3 µM (inactive) | 21.1 µM (inactive) |  | 39.3 µM (inactive) | > 100 µM (inactive) | 41.4 µM (inactive) | 46.1 µM (inactive) | 54.6 µM (inactive) | 46.3 µM (inactive) | 27.1 µM (inactive)
CN1CCN(C(=S)N(C(=O)c2ccc(Cl)cc2)C2CCCCC2)CC1 | > 100 µM (inactive) | > 100 µM (inactive) | 51.3 µM (inactive) | > 100 µM (inactive) | > 100 µM (inactive) | > 100 µM (inactive) | > 100 µM (inactive) | > 100 µM (inactive) | > 100 µM (inactive) | > 100 µM (inactive) | > 100 µM (inactive) | > 100 µM (inactive) |  | 61.7 µM (inactive) | > 100 µM (inactive) | > 100 µM (inactive) | > 100 µM (inactive) | > 100 µM (inactive)
COc1ccc2oc(S(=O)(=O)N3CC(CCl)c4ccc([N+](=O)[O-])cc43)cc2c1 (configuration not stated) | 0.29 µM (active) |  | 0.0366 µM (active) | 0.0292 µM (active) | 0.36 µM (active) | 0.274 µM (active) | 6.28 µM (inactive) | 0.179 µM (active) | 0.122 µM (active) | 20.2 µM (inactive) | 0.105 µM (active) | 0.0959 µM (active) | 0.105 µM (active) | 0.0579 µM (active) | 0.12 µM (active) | 0.0841 µM (active) | 0.0177 µM (active) | 0.783 µM (active)
Cc1nc(C(N)=S)sc1C(=O)CC(=O)C(=O)Nc1nc2ccccc2[nH]1 | > 100 µM (inactive) | > 100 µM (inactive) | > 100 µM (inactive) | > 100 µM (inactive) | > 100 µM (inactive) | > 100 µM (inactive) | > 100 µM (inactive) | > 100 µM (inactive) | > 100 µM (inactive) | > 100 µM (inactive) |  | > 100 µM (inactive) | > 100 µM (inactive) | 46.8 µM (inactive) | > 100 µM (inactive) | > 100 µM (inactive) | > 100 µM (inactive) | > 100 µM (inactive)
Cc1ccc(-n2nnc(C(N)=O)c2O)cc1 | > 100 µM (inactive) | > 100 µM (inactive) | > 100 µM (inactive) | > 100 µM (inactive) | > 100 µM (inactive) | > 100 µM (inactive) | > 100 µM (inactive) | > 100 µM (inactive) | > 100 µM (inactive) | > 100 µM (inactive) | > 100 µM (inactive) | > 100 µM (inactive) | > 100 µM (inactive) | > 100 µM (inactive) |  | > 100 µM (inactive) | > 100 µM (inactive) | > 100 µM (inactive)
